SMILES strings stand for the structures. Some results are limits rather than exact numbers.

The term inhibition denotes the drop in the measured response relative to a control, in per cent.

T1 sequence (Q9UGL1 whole entry): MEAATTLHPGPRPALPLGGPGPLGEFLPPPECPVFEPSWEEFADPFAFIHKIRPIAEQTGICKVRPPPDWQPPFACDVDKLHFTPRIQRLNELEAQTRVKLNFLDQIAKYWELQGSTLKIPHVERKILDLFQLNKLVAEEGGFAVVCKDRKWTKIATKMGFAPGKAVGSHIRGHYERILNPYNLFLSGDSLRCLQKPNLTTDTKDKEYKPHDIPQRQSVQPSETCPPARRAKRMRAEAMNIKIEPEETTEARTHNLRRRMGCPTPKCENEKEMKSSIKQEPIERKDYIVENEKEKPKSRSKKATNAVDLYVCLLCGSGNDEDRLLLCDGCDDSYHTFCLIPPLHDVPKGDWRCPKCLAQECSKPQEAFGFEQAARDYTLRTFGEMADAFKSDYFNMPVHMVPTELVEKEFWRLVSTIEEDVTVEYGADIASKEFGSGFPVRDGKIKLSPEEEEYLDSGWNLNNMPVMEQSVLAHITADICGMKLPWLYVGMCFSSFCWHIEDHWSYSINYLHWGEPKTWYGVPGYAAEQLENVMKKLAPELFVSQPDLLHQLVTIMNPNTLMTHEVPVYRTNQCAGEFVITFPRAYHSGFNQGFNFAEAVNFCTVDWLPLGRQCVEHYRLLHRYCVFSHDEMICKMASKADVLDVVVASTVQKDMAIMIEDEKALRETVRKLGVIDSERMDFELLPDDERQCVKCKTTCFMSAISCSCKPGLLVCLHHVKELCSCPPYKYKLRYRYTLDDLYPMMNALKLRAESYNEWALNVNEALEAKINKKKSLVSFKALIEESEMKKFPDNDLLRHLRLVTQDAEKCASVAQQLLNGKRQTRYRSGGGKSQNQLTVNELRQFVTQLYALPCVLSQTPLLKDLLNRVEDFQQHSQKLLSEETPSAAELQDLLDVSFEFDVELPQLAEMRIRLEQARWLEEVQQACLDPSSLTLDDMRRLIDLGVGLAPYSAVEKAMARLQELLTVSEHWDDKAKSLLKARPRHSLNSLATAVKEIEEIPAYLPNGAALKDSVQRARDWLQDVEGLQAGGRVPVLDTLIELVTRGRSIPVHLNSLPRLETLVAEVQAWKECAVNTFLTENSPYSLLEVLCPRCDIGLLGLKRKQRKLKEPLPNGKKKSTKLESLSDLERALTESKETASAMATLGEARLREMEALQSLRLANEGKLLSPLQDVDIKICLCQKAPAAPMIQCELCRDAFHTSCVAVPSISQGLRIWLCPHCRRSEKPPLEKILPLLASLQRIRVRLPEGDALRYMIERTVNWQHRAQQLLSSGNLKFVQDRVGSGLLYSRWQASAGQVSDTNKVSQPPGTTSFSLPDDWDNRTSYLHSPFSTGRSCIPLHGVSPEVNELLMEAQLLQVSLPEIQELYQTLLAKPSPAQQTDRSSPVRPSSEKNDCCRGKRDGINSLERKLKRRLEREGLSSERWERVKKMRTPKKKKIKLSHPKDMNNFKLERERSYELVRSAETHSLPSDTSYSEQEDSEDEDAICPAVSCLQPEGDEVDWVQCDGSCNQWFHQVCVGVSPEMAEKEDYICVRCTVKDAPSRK

The assay concerns the target T1, Recombinant human JARID1B/KDM5B (Homo sapiens, UniProt Q9UGL1).
T1 construct: purchased Active Motif 31432; host or cells: Sf9 insect cells
Nature of the assay: LANCE Ultra TR-FRET JARID1B (KDM5B) demethylase inhibition assay. In kind it is biochemical. The following applies: 0.1 uM of test-compounds, FLAG-JARID1B, 500 nM biotinylated H3K4me3 peptide substrate, 30 min at room temperature. From the text:
FLAG-tagged JARID1B (also known as KDM5B) protein was screened against 49 compounds. For this compound screening, LANCE Ultra time-resolved fluorescence resonance energy transfer (TR-FRET) assay was employed using a europoium (Eu)-labeled antibody that can specifically recognize mono- or dimethylated peptides (H3K4me2/1) and ULight-streptavidin (ULight-SA), a small molecule fluorescent dye. When irradiated at 340 nm, the energy from the Eu donor is transferred to the ULight acceptor dye which, in turn, emits light primarily at 665 nm. The ratio between the intensity of primary emission at 665 nm and that of secondary emission at […] was used to quantify the level of lysine methylation. As JARID1B removes more methyl moieties from tri-methylated substrate peptides (H3K4me3), the ratio increases until the enzyme reaction is terminated. In case, therefore, the compounds disrupt the enzymatic activity completely, the ratio becomes equal to a background value.
Recombinant human JARID1B/KDM5B (accession number NP_006609) of molecular weight 179.9 KDa was expressed in Sf9 insect cells and contains an N-terminal FLAG tag. The enzyme was obtained from Active Motif (Catalog No. 31432). The tri-methylated histone substrate peptide of purity greater than 95% was a synthetic peptide in which the first 21 amino acids correspond to the human histone H3 sequence with three extra amino acids and a biotin motif (GGK-biotin) linked to the C-terminus [sequence: ART-K(Me3)-QTARKSTGGKAPRKQLA-GGK-biotin-OH], (AnaSpec, Fremont, Calif. Catalog. No. ANA-1413). The reference inhibitor compound tranylcypromine (or trans-2-phenylcyclopropylamine hydrochloride, also known as, 2-PCPA) was purchased from Sigma (St. Louis, Mo. Cat. no. P8511). ULight-labeled streptavidin (ULight-SA, Catalog no. TRF0102), Eu-W1024-labeled anti-methyl-Histone H3 Lysine 4 (H3K4me1-2) Antibody (Catalog no. TRF0402), and LANCE detection buffer 10× (Catalog no. CR97-100) were obtained from PerkinElmer (Montreal, Quebec, Canada). The TR-FRET experiments were carried out in white, low-volume 384-wellplates purchased from PerkinElmer (ProxiPlate_-384 Plus, Catalog no. 6008280).
The TR-FRET signal was measured in the presence both of the bio-H3K4me3 peptide and FLAG-JARID1B by detecting any H3K4me2/1 peptide produced in the assay system. Assays using only the bio-H3K4me2 peptide were served as a positive control. Robust enzymatic progressions were observed by using JARID1B at concentrations ranging from 10 to 30 nM. In a typical TR-FRET experiment, JARID1B was pre-incubated with or without 0.1 uM of test-compounds (containing 1% DMSO final) for 5 min. The enzymatic reactions were initiated by the addition of 500 nM biotinylated H3K4me3 peptide substrate plus 500 uM of 2-OG 25 uM Fe(II) and 2 mM ascorbate. The reaction buffer also contained 50 mM Hepes (pH7.5), 0.01% (v/v) Tween 20, and 50 mM NaCl. The reaction mixture was incubated for 30 min at room temperature before reading on an EnVision plate reader (PerkinElmer, Waltham, Mass.).
A general note: In TR-FRET formats the signal depends on donor and acceptor labels being close together.
Turning to `O=c1[nH]cnc2c(-c3csc(NC4CCN(Cc5ccccc5)CC4)n3)nccc12` [Compound 61, 8-(2-((1-benzylpiperidin-4-yl)amino)thiazol-4-yl)pyrido[3,4-d]pyrimidin-4(3H)-one], the inhibition at 0.1 µM was in the range of 20 to 50%.

Consider `CCOC(=O)c1nc(-c2nccc3c(=O)[nH]cnc23)cs1` [Compound 62, ethyl 4-(4-oxo-3,4-dihydropyrido[3,4-d]pyrimidin-8-yl)thiazole-2-carboxylate], for which the inhibition at 0.1 µM was less than 20%.

For the compound `O=c1[nH]cnc2c(-c3cnn(CCO)c3)nccc12` [Compound 63, 8-(1-(2-hydroxyethyl)-1H-pyrazol-4-yl)pyrido[3,4-d]pyrimidin-4(3H)-one], the inhibition at 0.1 µM lay within 20 to 50%.

Consider `O=c1[nH]cnc2c(-c3cnn(Cc4ccccc4)c3)nccc12` [Compound 64, 8-(1-benzyl-1H-pyrazol-4-yl)pyrido[3,4-d]pyrimidin-4(3H)-one], for which the inhibition at 0.1 µM fell in the range of 20 to 50%.

For `O=c1[nH]cnc2c(-c3cnn(CCN4CCOCC4)c3)nccc12` [Compound 65, 8-(1-(2-morpholinoethyl)-1H-pyrazol-4-yl)pyrido[3,4-d]pyrimidin-4(3H)-one], the inhibition at 0.1 µM was 20 to 50%.

As for `O=c1[nH]c(COc2ccc(Cc3ccccc3)cc2)nc2c(-c3nccs3)nccc12` [Compound 66, 2-((4-benzylphenoxy)methyl)-8-(thiazol-2-yl)pyrido[3,4-d]pyrimidin-4(3H)-one], the inhibition at 0.1 µM was less than 20%.

With `O=c1[nH]c(COc2ccc(Cc3ccccc3)cc2)nc2c(-c3ccccn3)nccc12` [Compound 67, 2-((4-benzylphenoxy)methyl)-8-(pyridin-2-yl)pyrido[3,4-d]pyrimidin-4(3H)-one], the inhibition at 0.1 µM is 20 to 50%.

In the case of `Nc1ncc(-c2nccc3c(=O)[nH]c(COc4ccc(Cc5ccccc5)cc4)nc23)s1` [Compound 68, 8-(2-aminothiazol-5-yl)-2-((4-benzylphenoxy)methyl) pyrido[3,4-d]pyrimidin-4(3H)-one], the inhibition at 0.1 µM is less than 20%.

As to `Nc1ccn(-c2nccc3c(=O)[nH]c(COc4ccc(Cc5ccccc5)cc4)nc23)n1` [Compound 69, 8-(3-amino-1H-pyrazol-1-yl)-2-((4-benzylphenoxy)methyl) pyrido[3,4-d]pyrimidin-4(3H)-one], the inhibition at 0.1 µM is less than 20%.

With `Cn1cnc(-c2nccc3c(=O)[nH]c(COc4ccc(Cc5ccccc5)cc4)nc23)c1` [Compound 70, 2-((4-benzylphenoxy)methyl)-8-(1-methyl-1H-imidazol-4-yl)pyrido[3,4-d]pyrimidin-4(3H)-one], the inhibition at 0.1 µM was in the range of 20 to 50%.

For `Nc1nc(-c2nccc3c(=O)[nH]c(COc4ccc(Cc5ccccc5)cc4)nc23)cs1` [Compound 71, 8-(2-aminothiazol-4-yl)-2-((4-benzylphenoxy)methyl) pyrido[3,4-d]pyrimidin-4(3H)-one], the inhibition at 0.1 µM was not below 50%.

With `C=CCNc1nc(-c2nccc3c(=O)[nH]c(COc4ccc(Cc5ccccc5)cc4)nc23)cs1` [Compound 72, 8-(2-(allylamino)thiazol-4-yl)-2-((4-benzylphenoxy)methyl) pyrido[3,4-d]pyrimidin-4(3H)-one], the inhibition at 0.1 µM was in the range of 20 to 50%.

For `O=c1[nH]c(COc2ccc(Cc3ccccc3)cc2)nc2c(-c3csc(Nc4ccccc4)n3)nccc12` [Compound 73, 2-((4-benzylphenoxy)methyl)-8-(2-(phenylamino)thiazol-4-yl)pyrido[3,4-d]pyrimidin-4(3H)-one], the inhibition at 0.1 µM was less than 20%.

For the compound `O=c1[nH]c(COc2ccc(F)c(Cl)c2)nc2c(-c3nccs3)nccc12` [Compound 74, 2-((3-chloro-4-fluorophenoxy)methyl)-8-(thiazol-2-yl)pyrido[3,4-d]pyrimidin-4(3H)-one], the inhibition at 0.1 µM was in the range of 20 to 50%.

As to `Nc1ncc(-c2nccc3c(=O)[nH]c(COc4ccc(F)c(Cl)c4)nc23)s1` [Compound 75, 8-(2-aminothiazol-5-yl)-2-((3-chloro-4-fluorophenoxy)methyl) pyrido[3,4-d]pyrimidin-4(3H)-one], the inhibition at 0.1 µM is less than 20%.

Regarding `O=c1[nH]c(COc2ccc(F)c(Cl)c2)nc2c(-c3cc[nH]n3)nccc12` [Compound 76, 2-((3-chloro-4-fluorophenoxy)methyl)-8-(1H-pyrazol-3-yl)pyrido[3,4-d]pyrimidin-4(3H)-one], the inhibition at 0.1 µM was less than 20%.

Consider `Cn1cnc(-c2nccc3c(=O)[nH]c(COc4ccc(F)c(Cl)c4)nc23)c1` [Compound 77, 2-((3-chloro-4-fluorophenoxy)methyl)-8-(1-methyl-1H-imidazol-4-yl)pyrido[3,4-d]pyrimidin-4(3H)-one], for which the inhibition at 0.1 µM lay in the range of 20 to 50%.

As to `O=c1[nH]c(COc2ccc(F)c(Cl)c2)nc2c(-c3ccc(N4CCOCC4)nc3)nccc12` [Compound 78, 2-((3-chloro-4-fluorophenoxy)methyl)-8-(6-morpholinopyridin-3-yl)pyrido[3,4-d]pyrimidin-4(3H)-one], the inhibition at 0.1 µM is less than 20%.

`O=c1[nH]c(COc2ccc(F)c(Cl)c2)nc2c(-c3cnccn3)nccc12` [Compound 79, 2-((3-chloro-4-fluorophenoxy)methyl)-8-(pyrazin-2-yl)pyrido[3,4-d]pyrimidin-4(3H)-one]: the inhibition at 0.1 µM was in the range of 20 to 50%.

As to `O=c1[nH]c(COc2ccc(F)c(Cl)c2)nc2c(-c3ccccn3)nccc12` [Compound 80, 2-((3-chloro-4-fluorophenoxy)methyl)-8-(pyridin-2-yl)pyrido[3,4-d]pyrimidin-4(3H)-one], the inhibition at 0.1 µM lay in the range of 20 to 50%.

As to `O=c1[nH]c(COc2ccc(F)c(Cl)c2)nc2c(-c3csc(NCCO)n3)nccc12` [Compound 81, 2-((3-chloro-4-fluorophenoxy)methyl)-8-(2-((2-hydroxyethyl)amino)thiazol-4-yl)pyrido[3,4-d]pyrimidin-4(3H)-one], the inhibition at 0.1 µM is not below 50%.

On to `O=c1[nH]c(COc2ccc(F)c(Cl)c2)nc2c(-c3csc(NCCN4CCOCC4)n3)nccc12` [Compound 82, 2-((3-chloro-4-fluorophenoxy)methyl)-8-(2-((2-morpholinoethyl)amino)thiazol-4-yl)pyrido[3,4-d]pyrimidin-4(3H)-one], for which the inhibition at 0.1 µM was not below 50%.

For the compound `C[C@@H](O)CNc1nc(-c2nccc3c(=O)[nH]c(COc4ccc(F)c(Cl)c4)nc23)cs1` [Compound 83, (R)-2-((3-chloro-4-fluorophenoxy)methyl)-8-(2-((2-hydroxypropyl)amino)thiazol-4-yl)pyrido[3,4-d]pyrimidin-4(3H)-one], the inhibition at 0.1 µM was not below 50%.

As for `C[C@H](O)CNc1nc(-c2nccc3c(=O)[nH]c(COc4ccc(F)c(Cl)c4)nc23)cs1` [Compound 84, (S)-2-((3-chloro-4-fluorophenoxy)methyl)-8-(2-((2-hydroxypropyl)amino)thiazol-4-yl)pyrido[3,4-d]pyrimidin-4(3H)-one], the inhibition at 0.1 µM is not below 50%.

Turning to `O=c1[nH]c(COc2ccc(F)c(Cl)c2)nc2c(-c3csc(NCC4CCCO4)n3)nccc12` (stereo not shown) [Compound 85, 2-((3-chloro-4-fluorophenoxy)methyl)-8-(2-(((tetrahydrofuran-2-yl)methyl)amino)thiazol-4-yl)pyrido[3,4-d]pyrimidin-4(3H)-one], the inhibition at 0.1 µM is not below 50%.

Turning to `COCCNc1nc(-c2nccc3c(=O)[nH]c(COc4ccc(F)c(Cl)c4)nc23)cs1` [Compound 86, 2-((3-chloro-4-fluorophenoxy)methyl)-8-(2-((2-methoxyethyl)amino)thiazol-4-yl)pyrido[3,4-d]pyrimidin-4(3H)-one], the inhibition at 0.1 µM was not below 50%.

Regarding `CN(C)CCNc1nc(-c2nccc3c(=O)[nH]c(COc4ccc(F)c(Cl)c4)nc23)cs1` [Compound 87, 2-((3-chloro-4-fluorophenoxy)methyl)-8-(2-((2-(dimethylamino)ethyl)amino)thiazol-4-yl)pyrido[3,4-d]pyrimidin-4(3H)-one], the inhibition at 0.1 µM is not below 50%.

Regarding `NCCNc1nc(-c2nccc3c(=O)[nH]c(COc4ccc(F)c(Cl)c4)nc23)cs1` [Compound 88, 8-(2-((2-aminoethyl)amino)thiazol-4-yl)-2-((3-chloro-4-fluorophenoxy)methyl) pyrido[3,4-d]pyrimidin-4(3H)-one], the inhibition at 0.1 µM is not below 50%.

The values above are taken from US20170057955A1, “Pyridopyrimidinone Compounds for Modulating the Catalytic Activity of Histone Lysine Demethylases (KDMs)” (Dong-A Socio Holdings Co., Ltd., priority 2015, published 2017).
